Source: publication PMC11267380, “USP25 Elevates SHLD2‐Mediated DNA Double‐Strand Break Repair and Regulates Chemoresponse in Cancer” (Advanced Science, 2024)

What was measured:
SW620 cells = experiment: CCK8 survival assay, SW620 cells overexpressing TRIM25; format: cell-based; details: SW620 ctrl, 5-Fu (0, 0.1, 0.5, 1, 3 µM), 72 h
Excerpt: (§1) Figure 6 TRIM25 ubiquitinates and inactivates USP25. a) The mRNA expression levels of USP25 in human normal colon tissue samples (n = 41) and colorectal adenocarcinoma tissue samples (n = 286 COAD patients) from the Ualcan database. b) The mRNA expression level of USP25 in human colon cell lines and colon carcinoma cell lines through qPCR. c) The protein expression level of USP25 in human colon cell lines and colon carcinoma cell lines through western blot. d) Tissue microarray with representative IHC images showing USP25 protein expression in COAD tumors and adjacent tissues. […] Cell lysates were subjected to HA resin, and the immunoprecipitants were subsequently blotted using the indicated antibodies. f) The protein expression levels of USP25 were evaluated in HEK293T cells transfected with MYC‐TRIM25 or Flag‐HECTD3. g) The effect of cycloheximide (CHX) treatment on USP25 expression levels was analyzed in HEK293T cells transfected with TRIM25 for an indicated duration of time. h) In vivo ubiquitination assays were performed in control and TRIM25 knockdown cells, transfected with indicated plasmids, and treated with MG132 for 4 h before harvesting. […]
(§2) For long‐term proliferation, cells were seeded in triplicate in each well of 96‐well plates at a density of 1000 cells per well. […] The absorbance was measured at 450 nm using the SpectraMax M5 reader (Molecular Devices).

SW480 cells = experiment: CCK8 survival assay, TRIM25 knockdown SW480 cells; format: cell-based; details: ctrl vs USP25-depleted SW480, 5-Fu (0, 0.1, 0.5, 1, 3 µM), 72 h
Excerpt: as §1, §2

O=c1[nH]cc(F)c(=O)[nH]1 [5‐Fu, 5‐fluorouracil]
sensitization by TRIM25 overexpression (SW620 cells): sensitize to 5‐Fu treatment in ctrl SW620 cells
resistance by TRIM25 knockdown (SW480 cells): resistant to 5‐Fu treatment in ctrl cells but not USP25‐depleted SW480 cells
